According to PubChem BioAssay AID1963981 (Molecular Pharmacology Branch, DTP, NCI, 2024):

Test system: 354836-022-R-J1-PDC multicell spheroid viability
Assay: Anticancer human tumor 354836-022-R-J1-PDC patient-derived head and neck squamous cell carcinoma cell line growth inhibition [PI3K]
Settings: for IC50: curve of first compound; for viability, T/C: stronger effect = lower value
In short: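 Complex 3D spheroids (cancer cells + endothelial HUVEC + mesenchymal stem cells); drug pairs of targeted agent x inavolisib/alpelisib/duvelisib/copanlisib; half-log series from ~Cmax, max 10 microM if Cmax unknown; endpoint viability.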

[1] = second compound 0.0316 µM, first compound 0.0316 µM
[2] = second compound 0.0316 µM, first compound 0.1 µM
[3] = second compound 0.0316 µM, first compound 0.316 µM
[4] = second compound 0.0316 µM, first compound 1 µM
[5] = second compound 0.0316 µM, first compound 3.16 µM
[6] = second compound 0.0316 µM, first compound 10 µM
[7] = second compound 0.1 µM, first compound 0.0316 µM
[8] = second compound 0.1 µM, first compound 0.1 µM
[9] = second compound 0.1 µM, first compound 0.316 µM
[10] = second compound 0.1 µM, first compound 1 µM
[11] = second compound 0.1 µM, first compound 3.16 µM
[12] = second compound 0.1 µM, first compound 10 µM
[13] = second compound 0.316 µM, first compound 0.0316 µM
[14] = second compound 0.316 µM, first compound 0.1 µM
[15] = second compound 0.316 µM, first compound 0.316 µM
[16] = second compound 0.316 µM, first compound 1 µM
[17] = second compound 0.316 µM, first compound 3.16 µM
[18] = second compound 0.316 µM, first compound 10 µM
[19] = second compound 1 µM, first compound 0.0316 µM
[20] = second compound 1 µM, first compound 0.1 µM
[21] = second compound 1 µM, first compound 0.316 µM
[22] = second compound 1 µM, first compound 1 µM
[23] = second compound 1 µM, first compound 3.16 µM
[24] = second compound 1 µM, first compound 10 µM
[25] = second compound 3.16 µM, first compound 0.0316 µM
[26] = second compound 3.16 µM, first compound 0.1 µM
[27] = second compound 3.16 µM, first compound 0.316 µM
[28] = second compound 3.16 µM, first compound 1 µM
[29] = second compound 3.16 µM, first compound 3.16 µM
[30] = second compound 3.16 µM, first compound 10 µM
[31] = second compound 10 µM, first compound 0.0316 µM
[32] = second compound 10 µM, first compound 0.1 µM
[33] = second compound 10 µM, first compound 0.316 µM
[34] = second compound 10 µM, first compound 1 µM
[35] = second compound 10 µM, first compound 3.16 µM
[36] = second compound 10 µM, first compound 10 µM
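Note: spheroids exposed to agents for seven days before the viability read.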

## C=CC(=O)N1CCN(c2nc(=O)n(-c3c(C)ccnc3C(C)C)c3nc(-c4c(O)cccc4F)c(F)cc23)C(C)C1 (stereo not drawn) + CC(Nc1ncnc2nc[nH]c12)c1cc2cccc(Cl)c2c(=O)n1-c1ccccc1
Second compound 0.0316 µM
  IC50: > 10000 nM
Second compound 0.1 µM
  IC50: > 10000 nM
Second compound 0.316 µM
  IC50: > 10000 nM
Second compound 1 µM
  IC50: > 10000 nM
Second compound 3.16 µM
  IC50: > 10000 nM
Second compound 10 µM
  IC50: > 10000 nM
[1]
  viability, T/C: 93.1%
[2]
  viability, T/C: 84.5%
[3]
  viability, T/C: 103%
[4]
  viability, T/C: 103%
[5]
  viability, T/C: 98.7%
[6]
  viability, T/C: 94.1%
[7]
  viability, T/C: 98.7%
[8]
  viability, T/C: 94.5%
[9]
  viability, T/C: 96.4%
[10]
  viability, T/C: 115%
[11]
  viability, T/C: 108%
[12]
  viability, T/C: 95.5%
[13]
  viability, T/C: 110%
[14]
  viability, T/C: 106%
[15]
  viability, T/C: 103%
[16]
  viability, T/C: 116%
[17]
  viability, T/C: 106%
[18]
  viability, T/C: 88.1%
[19]
  viability, T/C: 103%
[20]
  viability, T/C: 98.4%
[21]
  viability, T/C: 108%
[22]
  viability, T/C: 102%
[23]
  viability, T/C: 98.7%
[24]
  viability, T/C: 97.7%
[25]
  viability, T/C: 96%
[26]
  viability, T/C: 114%
[27]
  viability, T/C: 106%
[28]
  viability, T/C: 115%
[29]
  viability, T/C: 115%
[30]
  viability, T/C: 93.2%
[31]
  viability, T/C: 98%
[32]
  viability, T/C: 89.4%
[33]
  viability, T/C: 90.1%
[34]
  viability, T/C: 99.2%
[35]
  viability, T/C: 102%
[36]
  viability, T/C: 88.1%

## CCN1CCN(Cc2ccc(Nc3ncc(F)c(-c4cc(F)c5nc(C)n(C(C)C)c5c4)n3)nc2)CC1 + CC(Nc1ncnc2nc[nH]c12)c1cc2cccc(Cl)c2c(=O)n1-c1ccccc1
Second compound 0.0316 µM
  IC50: 917 nM
Second compound 0.1 µM
  IC50: > 1000 nM
Second compound 0.316 µM
  IC50: > 1000 nM
Second compound 1 µM
  IC50: 954 nM
Second compound 3.16 µM
  IC50: 788 nM
Second compound 10 µM
  IC50: 643 nM
Second compound 0.0316 µM, first compound 0.00316 µM
  viability, T/C: 109%
Second compound 0.0316 µM, first compound 0.01 µM
  viability, T/C: 103%
[1]
  viability, T/C: 97.6%
[2]
  viability, T/C: 96.7%
[3]
  viability, T/C: 81.7%
[4]
  viability, T/C: 47.3%
Second compound 0.1 µM, first compound 0.00316 µM
  viability, T/C: 106%
Second compound 0.1 µM, first compound 0.01 µM
  viability, T/C: 109%
[7]
  viability, T/C: 91.7%
[8]
  viability, T/C: 103%
[9]
  viability, T/C: 99.5%
[10]
  viability, T/C: 61.2%
Second compound 0.316 µM, first compound 0.00316 µM
  viability, T/C: 103%
Second compound 0.316 µM, first compound 0.01 µM
  viability, T/C: 102%
[13]
  viability, T/C: 102%
[14]
  viability, T/C: 104%
[15]
  viability, T/C: 89.4%
[16]
  viability, T/C: 58.1%
Second compound 1 µM, first compound 0.00316 µM
  viability, T/C: 119%
Second compound 1 µM, first compound 0.01 µM
  viability, T/C: 104%
[19]
  viability, T/C: 94.9%
[20]
  viability, T/C: 109%
[21]
  viability, T/C: 91.6%
[22]
  viability, T/C: 47.8%
Second compound 3.16 µM, first compound 0.00316 µM
  viability, T/C: 97.9%
Second compound 3.16 µM, first compound 0.01 µM
  viability, T/C: 110%
[25]
  viability, T/C: 94.2%
[26]
  viability, T/C: 100%
[27]
  viability, T/C: 93.7%
[28]
  viability, T/C: 38.5%
Second compound 10 µM, first compound 0.00316 µM
  viability, T/C: 92.5%
Second compound 10 µM, first compound 0.01 µM
  viability, T/C: 92.8%
[31]
  viability, T/C: 90.1%
[32]
  viability, T/C: 86.4%
[33]
  viability, T/C: 83.8%
[34]
  viability, T/C: 29.6%

## Cn1ncc(Cl)c1-c1cc(C(=O)NC(CN)Cc2cccc(F)c2)sc1Cl (stereo not drawn) + CC(Nc1ncnc2nc[nH]c12)c1cc2cccc(Cl)c2c(=O)n1-c1ccccc1
Second compound 0.0316 µM
  IC50: 100 nM
Second compound 0.1 µM
  IC50: 168 nM
Second compound 0.316 µM
  IC50: 112 nM
Second compound 1 µM
  IC50: 162 nM
Second compound 3.16 µM
  IC50: 215 nM
Second compound 10 µM
  IC50: 145 nM
[1]
  viability, T/C: 74.6%
[2]
  viability, T/C: 48.9%
[3]
  viability, T/C: 31.8%
[4]
  viability, T/C: 15.1%
[5]
  viability, T/C: 5.4%
[6]
  viability, T/C: 1.88%
[7]
  viability, T/C: 70.7%
[8]
  viability, T/C: 61.4%
[9]
  viability, T/C: 36.3%
[10]
  viability, T/C: 17.7%
[11]
  viability, T/C: 5.21%
[12]
  viability, T/C: 1.62%
[13]
  viability, T/C: 74.1%
[14]
  viability, T/C: 52.5%
[15]
  viability, T/C: 30.3%
[16]
  viability, T/C: 17.8%
[17]
  viability, T/C: 5.75%
[18]
  viability, T/C: 1.5%
[19]
  viability, T/C: 65.6%
[20]
  viability, T/C: 67%
[21]
  viability, T/C: 29.6%
[22]
  viability, T/C: 19.3%
[23]
  viability, T/C: 5.53%
[24]
  viability, T/C: 1.8%
[25]
  viability, T/C: 75.6%
[26]
  viability, T/C: 68.1%
[27]
  viability, T/C: 39.5%
[28]
  viability, T/C: 20.9%
[29]
  viability, T/C: 7.18%
[30]
  viability, T/C: 2.1%
[31]
  viability, T/C: 70.8%
[32]
  viability, T/C: 59.7%
[33]
  viability, T/C: 31.8%
[34]
  viability, T/C: 18.9%
[35]
  viability, T/C: 8.1%
[36]
  viability, T/C: 2.22%

## Cn1nccc1Nc1nccc(-c2ccn(C(CO)c3ccc(Cl)c(F)c3)c(=O)c2)n1 (stereo not drawn) + CC(Nc1ncnc2nc[nH]c12)c1cc2cccc(Cl)c2c(=O)n1-c1ccccc1
Second compound 0.0316 µM
  IC50: > 10000 nM
Second compound 0.1 µM
  IC50: > 10000 nM
Second compound 0.316 µM
  IC50: > 10000 nM
Second compound 1 µM
  IC50: > 10000 nM
Second compound 3.16 µM
  IC50: > 10000 nM
Second compound 10 µM
  IC50: > 10000 nM
[1]
  viability, T/C: 107%
[2]
  viability, T/C: 107%
[3]
  viability, T/C: 103%
[4]
  viability, T/C: 94.9%
[5]
  viability, T/C: 89.3%
[6]
  viability, T/C: 90.5%
[7]
  viability, T/C: 108%
[8]
  viability, T/C: 110%
[9]
  viability, T/C: 94.3%
[10]
  viability, T/C: 104%
[11]
  viability, T/C: 91.2%
[12]
  viability, T/C: 96.4%
[13]
  viability, T/C: 113%
[14]
  viability, T/C: 93.5%
[15]
  viability, T/C: 87.2%
[16]
  viability, T/C: 106%
[17]
  viability, T/C: 100%
[18]
  viability, T/C: 94.9%
[19]
  viability, T/C: 117%
[20]
  viability, T/C: 95.5%
[21]
  viability, T/C: 111%
[22]
  viability, T/C: 118%
[23]
  viability, T/C: 101%
[24]
  viability, T/C: 78.2%
[25]
  viability, T/C: 94.4%
[26]
  viability, T/C: 91.6%
[27]
  viability, T/C: 99.3%
[28]
  viability, T/C: 97.3%
[29]
  viability, T/C: 107%
[30]
  viability, T/C: 88.1%
[31]
  viability, T/C: 88.3%
[32]
  viability, T/C: 103%
[33]
  viability, T/C: 95.3%
[34]
  viability, T/C: 85.4%
[35]
  viability, T/C: 94%
[36]
  viability, T/C: 76.1%
